# Results published in US20070128217A1 (priority 2003, published 2007).
# Tests used:
# [1] = tested on: control sera (pooled serum of ten healthy LUMC hospital workers; commercial negative donor pooled serum from the Dutch bloodbank); format: binding, human; set-up: Binding of Control serum LUMC to linear peptides / Binding of Control serum Blood-bank to linear peptides / Binding of Control serum LUMC to looped peptides / Binding of Control Serum Blood-Bank to Looped peptides / Binding of Control serum LUMC to linear peptides of the protein M of SARS-CoV Urbani / Binding of Control serum Blood-bank to linear peptides of the protein M of SARS-CoV Urbani / Binding of Control serum LUMC to looped peptides of the protein M of SARS-CoV Urbani / Binding of Control Serum Blood-Bank to Looped peptides of the protein M of SARS-CoV Urbani: unit not given here
# [2] = tested on: antibodies in sera from SARS patients (sera 1a, 1b, 2, 6, 37, 62, London, SARS-yellow, SARS-green); format: binding, human; set-up: Binding of serum 6 to linear peptides of protein X1 of SARS-CoV Urbani / Binding of serum 37 to linear peptides of protein X1 of SARS-CoV Urbani / Binding of serum 6 to looped/cyclic peptide (PEPSCAN-ELISA) / Binding of serum 37 to looped/cyclic peptide (PEPSCAN-ELISA) / Binding of serum 37 to looped/cyclic peptides of protein X1 of SARS-CoV Urbani / Binding of serum 6 to linear peptides of protein X2 / Binding of serum 37 to linear peptides of protein X2 / Binding of serum 37 to looped/cyclic peptides of protein X2 of SARS-CoV Urbani / Binding of serum 6 to linear peptides of protein M of SARS-CoV Urbani / Binding of serum 37 to linear peptides of protein M of SARS-CoV Urbani / Binding of serum 6 to looped/cyclic peptides of protein M of SARS-CoV Urbani / Binding of serum 37 to looped/cyclic peptides of protein M of SARS-CoV Urbani / Binding of serum 6 to linear peptides of protein X3 of SARS-CoV Urbani / Binding of serum 37 to linear peptides of protein X3 of SARS-CoV Urbani / Binding of serum 37 to looped/cyclic peptides of protein X3 of SARS-CoV Urbani / Binding of serum 6 to linear peptides of protein X4 of SARS-CoV Urbani / Binding of serum 37 to linear peptides of protein X4 of SARS-CoV Urbani / Binding of serum 37 to looped/cyclic peptides of protein X4 of SARS-CoV Urbani / Binding of serum 6 to linear peptides of protein X5 of SARS-CoV Urbani / Binding of serum 37 to linear peptides of protein X5 of SARS-CoV Urbani / Binding of serum 37 to looped/cyclic peptides of protein X5 of SARS-CoV Urbani / Binding of serum 6 to linear peptides of protein N of SARS-CoV Urbani / Binding of serum 37 to linear peptides of protein N of SARS-CoV Urbani / Binding of serum 6 to linear peptide (PEPSCAN-ELISA) / Binding of serum 1a to looped/cyclic peptides of protein N of SARS-CoV Urbani / Binding of serum 1b to looped/cyclic peptides of protein N of SARS-CoV Urbani / Binding of serum 2 to looped/cyclic peptides of protein N of SARS-CoV Urbani / Binding of serum 6 to looped/cyclic peptides of protein N of SARS-CoV Urbani / Binding of serum 37 to looped/cyclic peptides of protein N of SARS-CoV Urbani / Binding of serum 62 to looped/cyclic peptides of protein N of SARS-CoV Urbani / Binding of serum London to looped/cyclic peptides of protein N of SARS-CoV Urbani / Binding of serum SARS-green to looped/cyclic peptides of protein N of SARS-CoV Urbani: unit not given here
# [3] = tested on: rabbit serum obtained by immunizing a rabbit with the SARS-CoV strain Frankfurt 1; format: binding; set-up: Binding of a rabbit serum to linear peptides / Binding of a rabbit serum to looped peptides / Rabbit serum linear peptides / Rabbit serum looped peptides / Binding of a rabbit serum to linear peptides of protein N of SARS-CoV Urbani (Rabbit serum linear peptides) / Binding of a rabbit serum to looped/cyclic peptides of protein N of SARS-CoV Urbani (Rabbit serum looped peptides): unit not given here
sequence,measurement,setting,value
LVFLWLLWPVTLACF,Binding of Control Serum Blood-Bank to Looped peptides of the protein M of SARS-CoV Urbani,[1],0.7
same,Binding of Control serum Blood-bank to linear peptides of the protein M of SARS-CoV Urbani,[1],0.5
same,Binding of Control serum LUMC to linear peptides of the protein M of SARS-CoV Urbani,[1],0.2
same,Binding of Control serum LUMC to looped peptides of the protein M of SARS-CoV Urbani,[1],0.7
same,Binding of serum 1a to linear peptides of protein M of SARS-CoV Urbani,[2],0.7
same,Binding of serum 1a to looped/cyclic peptides of protein M of SARS-CoV Urbani,[2],0.6
same,Binding of serum 1b to linear peptides of protein M of SARS-CoV Urbani,[2],0.5
same,Binding of serum 1b to looped/cyclic peptides of protein M of SARS-CoV Urbani,[2],0.5
same,Binding of serum 2 to linear peptides of protein M of SARS-CoV Urbani,[2],0.4
same,Binding of serum 2 to looped/cyclic peptides of protein M of SARS-CoV Urbani,[2],0.7
same,Binding of serum 6 to linear peptides of protein M of SARS-CoV Urbani,[2],0.6
same,Binding of serum 6 to looped/cyclic peptides of protein M of SARS-CoV Urbani,[2],0.6
same,Binding of serum 37 to linear peptides of protein M of SARS-CoV Urbani,[2],0.6
same,Binding of serum 37 to looped/cyclic peptides of protein M of SARS-CoV Urbani,[2],0.7
same,Binding of serum 62 to linear peptides of protein M of SARS-CoV Urbani,[2],0.8
same,Binding of serum 62 to looped/cyclic peptides of protein M of SARS-CoV Urbani,[2],0.7
same,Binding of serum London to linear peptides of protein M of SARS-CoV Urbani,[2],0.7
same,Binding of serum London to looped/cyclic peptides of protein M of SARS-CoV Urbani,[2],0.2
same,Binding of serum SARS-green to linear peptides of protein M of SARS-CoV Urbani,[2],0.2
same,Binding of serum SARS-green to looped/cyclic peptides of protein M of SARS-CoV Urbani,[2],0.3
same,Binding of serum SARS-yellow to linear peptides of protein M of SARS-CoV Urbani,[2],0.1
same,Binding of serum SARS-yellow to looped/cyclic peptides of protein M of SARS-CoV Urbani,[2],0.4
same,Rabbit serum linear peptides,[3],0.3
same,Rabbit serum looped peptides,[3],0.3
LVIGFLFLAWIMLLQ,Binding of Control Serum Blood-Bank to Looped peptides of the protein M of SARS-CoV Urbani,[1],0.6
same,Binding of Control serum Blood-bank to linear peptides of the protein M of SARS-CoV Urbani,[1],0.6
same,Binding of Control serum LUMC to linear peptides of the protein M of SARS-CoV Urbani,[1],0.5
same,Binding of Control serum LUMC to looped peptides of the protein M of SARS-CoV Urbani,[1],0.7
same,Binding of serum 1a to linear peptides of protein M of SARS-CoV Urbani,[2],0.7
same,Binding of serum 1a to looped/cyclic peptides of protein M of SARS-CoV Urbani,[2],0.7
same,Binding of serum 1b to linear peptides of protein M of SARS-CoV Urbani,[2],0.5
same,Binding of serum 1b to looped/cyclic peptides of protein M of SARS-CoV Urbani,[2],0.6
same,Binding of serum 2 to linear peptides of protein M of SARS-CoV Urbani,[2],0.5
same,Binding of serum 2 to looped/cyclic peptides of protein M of SARS-CoV Urbani,[2],0.8
same,Binding of serum 6 to linear peptides of protein M of SARS-CoV Urbani,[2],0.4
same,Binding of serum 6 to looped/cyclic peptides of protein M of SARS-CoV Urbani,[2],0.5
same,Binding of serum 37 to linear peptides of protein M of SARS-CoV Urbani,[2],0.4
same,Binding of serum 37 to looped/cyclic peptides of protein M of SARS-CoV Urbani,[2],0.7
same,Binding of serum 62 to linear peptides of protein M of SARS-CoV Urbani,[2],0.4
same,Binding of serum 62 to looped/cyclic peptides of protein M of SARS-CoV Urbani,[2],0.7
same,Binding of serum London to linear peptides of protein M of SARS-CoV Urbani,[2],0.3
same,Binding of serum London to looped/cyclic peptides of protein M of SARS-CoV Urbani,[2],0.2
same,Binding of serum SARS-green to linear peptides of protein M of SARS-CoV Urbani,[2],0.4
same,Binding of serum SARS-green to looped/cyclic peptides of protein M of SARS-CoV Urbani,[2],0.3
same,Binding of serum SARS-yellow to linear peptides of protein M of SARS-CoV Urbani,[2],0.1
same,Binding of serum SARS-yellow to looped/cyclic peptides of protein M of SARS-CoV Urbani,[2],0.7
same,Rabbit serum linear peptides,[3],0.1
same,Rabbit serum looped peptides,[3],0.3
LVLKMLHSSSLTSLL,Binding of Control Serum Blood-Bank to Looped peptides,[1],0.7
same,Binding of Control serum Blood-bank to linear peptides,[1],0.5
same,Binding of Control serum LUMC to linear peptides,[1],0.2
same,Binding of Control serum LUMC to looped peptides,[1],0.6
same,Binding of serum 1a to linear peptides of protein X2,[2],0.6
same,Binding of serum 1a to looped/cyclic peptides of protein X2 of SARS-CoV Urbani,[2],0.6
same,Binding of serum 1b to linear peptides of protein X2,[2],0.4
same,Binding of serum 1b to looped/cyclic peptides of protein X2 of SARS-CoV Urbani,[2],0.5
same,Binding of serum 2 to linear peptides of protein X2,[2],0.3
same,Binding of serum 2 to looped/cyclic peptides of protein X2 of SARS-CoV Urbani,[2],0.3
same,Binding of serum 6 to linear peptides of protein X2,[2],0.3
same,Binding of serum 6 to looped/cyclic peptides of protein X2 of SARS-CoV Urbani,[2],0.4
same,Binding of serum 37 to linear peptides of protein X2,[2],0.4
same,Binding of serum 37 to looped/cyclic peptides of protein X2 of SARS-CoV Urbani,[2],0.4
same,Binding of serum 62 to linear peptides of protein X2,[2],0.5
same,Binding of serum 62 to looped/cyclic peptides of protein X2 of SARS-CoV Urbani,[2],0.6
same,Binding of serum London to linear peptides of protein X2,[2],0.3
same,Binding of serum London to looped/cyclic peptides of protein X2 of SARS-CoV Urbani,[2],0.2
same,Binding of serum SARS-green to linear peptides of protein X2,[2],0.5
same,Binding of serum SARS-green to looped/cyclic peptides of protein X2 of SARS-CoV Urbani,[2],0.3
same,Binding of serum SARS-yellow to linear peptides of protein X2,[2],0.4
same,Binding of serum SARS-yellow to looped/cyclic peptides of protein X2 of SARS-CoV Urbani,[2],0.4
same,Binding of a rabbit serum to linear peptides,[3],0.3
same,Binding of a rabbit serum to looped peptides,[3],0.4
LVRYNTRGNTYSTAW,Binding of Control Serum Blood-Bank to Looped peptides,[1],0.3
same,Binding of Control serum Blood-bank to linear peptides,[1],0.8
same,Binding of Control serum LUMC to linear peptides,[1],0.5
same,Binding of Control serum LUMC to looped peptides,[1],0.5
same,Binding of serum 1a to linear peptides of protein X5 of SARS-CoV Urbani,[2],0.7
same,Binding of serum 1a to looped/cyclic peptides of protein X5 of SARS-CoV Urbani,[2],0.4
same,Binding of serum 1b to linear peptides of protein X5 of SARS-CoV Urbani,[2],0.4
same,Binding of serum 1b to looped/cyclic peptides of protein X5 of SARS-CoV Urbani,[2],0.2
same,Binding of serum 2 to linear peptides of protein X5 of SARS-CoV Urbani,[2],0.5
same,Binding of serum 2 to looped/cyclic peptides of protein X5 of SARS-CoV Urbani,[2],0.4
same,Binding of serum 6 to linear peptides of protein X5 of SARS-CoV Urbani,[2],0.4
same,Binding of serum 6 to looped/cyclic peptides of protein X5 of SARS-CoV Urbani,[2],0.3
same,Binding of serum 37 to linear peptides of protein X5 of SARS-CoV Urbani,[2],0.6
same,Binding of serum 37 to looped/cyclic peptides of protein X5 of SARS-CoV Urbani,[2],0.5
same,Binding of serum 62 to linear peptides of protein X5 of SARS-CoV Urbani,[2],0.7
same,Binding of serum 62 to looped/cyclic peptides of protein X5 of SARS-CoV Urbani,[2],0.6
same,Binding of serum London to linear peptides of protein X5 of SARS-CoV Urbani,[2],0.6
same,Binding of serum London to looped/cyclic peptides of protein X5 of SARS-CoV Urbani,[2],0.2
same,Binding of serum SARS-green to linear peptides of protein X5 of SARS-CoV Urbani,[2],0.4
same,Binding of serum SARS-green to looped/cyclic peptides of protein X5 of SARS-CoV Urbani,[2],0.3
same,Binding of serum SARS-yellow to linear peptides of protein X5 of SARS-CoV Urbani,[2],0.3
same,Binding of serum SARS-yellow to looped/cyclic peptides of protein X5 of SARS-CoV Urbani,[2],0.5
same,Rabbit serum linear peptides,[3],0.7
same,Rabbit serum looped peptides,[3],0.3
